Data as given in patent publication US11725036B2, “Modified lipidated relaxin B chain peptides and their therapeutic use” (Sanofi, priority 2018, dated 2023).
Starred links: 1 amine or outer side, 2 acyl side, 3 side chain; linkers in the order of their positions; H or OH if unused. Non-standard residues stand in square brackets, D forms with d. Residues, ends and D or L forms follow the SMILES beside them. Groups on a side chain read outwards from the residue. *: point of attachment. X1 = CCCCCCCCCCCCCCCC(=O)N[C@@H](CCC(=O)N[C@@H](CCC(=O)N[C@@H](CCC(=O)NCCCOCCOCCOCCCNC(=O)CCC(=O)NCCCOCCOCCOCCCNC(=O)CCC(=O)NCCCOCCOCCOCCCN*)C(=O)O)C(=O)O)C(=O)O; X4 = CCCCCCCCCCCCCCCCCC(=O)N[C@@H](CCC(=O)N[C@@H](CCC(=O)N[C@@H](CCC(=O)NCCCOCCOCCOCCCNC(=O)CCC(=O)NCCCOCCOCCOCCCN*)C(=O)O)C(=O)O)C(=O)O; γGlu = O=C(O)[C@H](CCC(=O)[*:2])N[*:1]; Palmitoyl = CCCCCCCCCCCCCCCC(=O)*; Suc = O=C(CCC(=O)[*:2])[*:1]; αMeK = C[C@](N)(CCCCN)C(=O)O; AEEA = NCCOCCOCC(=O)O; Aib = CC(C)(N)C(=O)O

Biological target: T1, RXFP1 (Homo sapiens, UniProt Q9HBX9)
T1 construct: OVCAR5 cells expressing endogenous RXFP1; endogenous in cells; host or cells: OVCAR5
T1 sequence (Q9HBX9 1-757): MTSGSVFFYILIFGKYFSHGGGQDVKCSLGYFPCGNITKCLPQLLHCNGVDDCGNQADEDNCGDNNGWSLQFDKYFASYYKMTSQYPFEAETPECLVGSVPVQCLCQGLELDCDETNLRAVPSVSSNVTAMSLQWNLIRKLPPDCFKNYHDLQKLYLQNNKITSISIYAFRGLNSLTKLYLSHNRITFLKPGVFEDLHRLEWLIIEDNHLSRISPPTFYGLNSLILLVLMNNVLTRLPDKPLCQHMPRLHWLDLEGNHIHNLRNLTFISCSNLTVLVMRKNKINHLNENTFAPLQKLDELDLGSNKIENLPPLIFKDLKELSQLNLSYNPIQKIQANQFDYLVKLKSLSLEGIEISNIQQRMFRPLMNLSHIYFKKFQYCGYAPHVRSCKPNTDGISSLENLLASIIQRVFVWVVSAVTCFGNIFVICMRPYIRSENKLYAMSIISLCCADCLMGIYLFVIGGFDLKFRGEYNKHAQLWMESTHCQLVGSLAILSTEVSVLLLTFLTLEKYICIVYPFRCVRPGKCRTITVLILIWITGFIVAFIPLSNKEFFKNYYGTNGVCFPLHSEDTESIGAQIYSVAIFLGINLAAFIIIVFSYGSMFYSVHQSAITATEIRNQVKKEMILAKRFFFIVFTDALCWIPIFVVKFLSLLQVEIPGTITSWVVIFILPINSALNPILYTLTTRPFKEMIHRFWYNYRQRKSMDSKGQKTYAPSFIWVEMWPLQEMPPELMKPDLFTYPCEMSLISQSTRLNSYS
Assay: OVCAR5 cAMP assay (HTRF)
Assay type: cell-based
Conditions: for EC50: OVCAR 5 cells expressing endogenous RXFP1, cAMP readout; for Emax: OVCAR 5 cells, maximal cAMP relative to H2-relaxin
Method in brief: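 Endogenous RXFP1 in OVCAR5 cells, pretreated 40 min at 37° C with 1 mM IBMX, then exposed to increasing peptide concentrations in serum-free medium for 30 min at 37° C. cAMP read by HTRF; EC50 by variable-slope sigmoidal fit, Emax as % of H2-relaxin maximal cAMP in same run.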

EC50 [nM]	Emax [%]	SMILES
1.74	88	CCCCCCCCCCCCCCCC(=O)N[C@@H](CCC(=O)N[C@@H](CCC(=O)N[C@@H](CCC(=O)NCCCOCCOCCOCCCNC(=O)CCC(=O)NCCCOCCOCCOCCCNC(=O)CCC(=O)NCCCOCCOCCOCCCNC(=O)CCC(=O)NCCCC[C@H](NC(=O)CNC(=O)[C@H](CCC(=O)O)NC(=O)C(C)(C)NC(=O)C(C)(C)NC(=O)[C@@H](NC(=O)[C@H](CCCCNC(C)=O)NC(=O)[C@H](C)NC(=O)[C@H](CCCNC(=N)N)NC(=O)[C@@H](NC(=O)[C@H](CCCCN)NC(=O)[C@H](CCC(=O)O)NC(=O)[C@H](CCCNC(=N)N)NC(=O)CNC(=O)[C@H](CCC(=O)O)NC(=O)[C@H](CC(C)C)NC(C)=O)C(C)C)[C@@H](C)CC)C(=O)N[C@@H](CO)C(=O)N[C@H](C(=O)N[C@@H](Cc1ccccc1)C(=O)N[C@H](C(=O)N[C@@H](CCCNC(=N)N)C(=O)N[C@@H](CCCNC(=N)N)C(=O)N[C@@H](C)C(=O)N[C@@H](CCCCNC(C)=O)C(N)=O)C(C)C)[C@@H](C)O)C(=O)O)C(=O)O)C(=O)O [compound 94] (Ac-LEGREKVRAK(Ac)I[Aib][Aib]EGK([Suc-X1])STFVRRAK(Ac)-NH2)
–	93	CCCCCCCCCCCCCCCC(=O)N[C@@H](CCC(=O)N[C@@H](CCC(=O)N[C@@H](CCC(=O)NCCCOCCOCCOCCCNC(=O)CCC(=O)NCCCOCCOCCOCCCNC(=O)CCC(=O)NCCCOCCOCCOCCCNC(=O)CCC(=O)NCCCC[C@H](NC(=O)CNC(=O)[C@H](CCC(=O)O)NC(=O)C(C)(C)NC(=O)C(C)(C)NC(=O)[C@@H](NC(=O)[C@H](CCCCNC(C)=O)NC(=O)[C@H](C)NC(=O)[C@H](CCCNC(=N)N)NC(=O)[C@@H](NC(=O)[C@H](CCCCN)NC(=O)[C@H](CCC(=O)O)NC(=O)[C@H](CCCNC(=N)N)NC(=O)CNC(=O)[C@H](CCC(=O)O)NC(=O)[C@H](CC(C)C)NC(C)=O)C(C)C)[C@@H](C)CC)C(=O)N[C@@H](CO)C(=O)N[C@H](C(=O)N[C@@H](Cc1c[nH]c2ccccc12)C(=O)N[C@@H](CCCCNC(C)=O)C(=O)NC(C)(C)C(=O)N[C@@H](CCCNC(=N)N)C(=O)N[C@@H](C)C(=O)N[C@@H](CCCCNC(C)=O)C(N)=O)[C@@H](C)O)C(=O)O)C(=O)O)C(=O)O [compound 66] (Ac-LEGREKVRAK(Ac)I[Aib][Aib]EGK([Suc-X1])STWK(Ac)[Aib]RAK(Ac)-NH2)
11.5	94	CCCCCCCCCCCCCCCC(=O)N[C@@H](CCC(=O)N[C@@H](CCC(=O)N[C@@H](CCC(=O)NCCOCCOCC(=O)NCCOCCOCC(=O)NCCOCCOCC(=O)NCCCC[C@H](NC(=O)CNC(=O)[C@H](CCC(=O)O)NC(=O)C(C)(C)NC(=O)C(C)(C)NC(=O)[C@@H](NC(=O)[C@H](CCCCNC(C)=O)NC(=O)[C@H](C)NC(=O)[C@H](CCCNC(=N)N)NC(=O)[C@@H](NC(=O)[C@H](CCCCN)NC(=O)[C@H](CCC(=O)O)NC(=O)[C@H](CCCNC(=N)N)NC(=O)CNC(=O)[C@H](CCC(=O)O)NC(=O)[C@H](CC(C)C)NC(C)=O)C(C)C)[C@@H](C)CC)C(=O)N[C@@H](CO)C(=O)N[C@H](C(=O)N[C@@H](Cc1c[nH]c2ccccc12)C(=O)N[C@@H](CO)C(=O)NC(C)(C)C(=O)N[C@@H](CCCNC(=N)N)C(=O)N[C@@H](CCCCN)C(=O)N[C@@H](CCCCNC(C)=O)C(N)=O)[C@@H](C)O)C(=O)O)C(=O)O)C(=O)O [compound 19] (Ac-LEGREKVRAK(Ac)I[Aib][Aib]EGK([AEEA-AEEA-AEEA-γGlu-γGlu-γGlu-Palmitoyl])STWS[Aib]RKK(Ac)-NH2)
0.16	98	CCCCCCCCCCCCCCCC(=O)N[C@@H](CCC(=O)N[C@@H](CCC(=O)N[C@@H](CCC(=O)NCCCOCCOCCOCCCNC(=O)CCC(=O)NCCCOCCOCCOCCCNC(=O)CCC(=O)NCCCOCCOCCOCCCNC(=O)CCC(=O)NCCCC[C@H](NC(=O)CNC(=O)[C@H](CCC(=O)O)NC(=O)C(C)(C)NC(=O)C(C)(C)NC(=O)[C@@H](NC(=O)[C@H](CCCCNC(C)=O)NC(=O)[C@H](C)NC(=O)[C@H](CCCNC(=N)N)NC(=O)[C@@H](NC(=O)[C@H](CCCCN)NC(=O)[C@H](CCC(=O)O)NC(=O)[C@H](CCCNC(=N)N)NC(=O)CNC(=O)[C@H](CCC(=O)O)NC(=O)[C@H](CCCCNC(C)=O)NC(C)=O)C(C)C)[C@@H](C)CC)C(=O)N[C@@H](CO)C(=O)N[C@H](C(=O)N[C@@H](Cc1ccccc1)C(=O)N[C@@H](CO)C(=O)N[C@@](C)(CCCCN)C(=O)N[C@@H](CCCNC(=N)N)C(=O)N[C@@H](C)C(=O)N[C@@H](CCCCNC(C)=O)C(N)=O)[C@@H](C)O)C(=O)O)C(=O)O)C(=O)O [compound 81] (Ac-K(Ac)EGREKVRAK(Ac)I[Aib][Aib]EGK([Suc-X1])STFS[αMeK]RAK(Ac)-NH2)
0.1	96	CCCCCCCCCCCCCCCC(=O)N[C@@H](CCC(=O)N[C@@H](CCC(=O)N[C@@H](CCC(=O)NCCCOCCOCCOCCCNC(=O)CCC(=O)NCCCOCCOCCOCCCNC(=O)CCC(=O)NCCCOCCOCCOCCCNC(=O)CCC(=O)NCCCC[C@H](NC(=O)CNC(=O)[C@H](CCC(=O)O)NC(=O)C(C)(C)NC(=O)C(C)(C)NC(=O)[C@@H](NC(=O)[C@H](CCCCNC(C)=O)NC(=O)[C@H](C)NC(=O)[C@H](CCCNC(=N)N)NC(=O)[C@@H](NC(=O)[C@H](CCCCN)NC(=O)[C@H](CCC(=O)O)NC(=O)[C@H](CCCNC(=N)N)NC(=O)CNC(=O)[C@H](CCC(=O)O)NC(=O)[C@H](CC(C)C)NC(C)=O)C(C)C)[C@@H](C)CC)C(=O)N[C@@H](CO)C(=O)N[C@H](C(=O)N[C@@H](Cc1ccccc1)C(=O)N[C@@H](CO)C(=O)N[C@@H](CCCNC(=N)N)C(=O)N[C@@H](CCCNC(=N)N)C(=O)N[C@@H](C)C(=O)N[C@@H](CCCCNC(C)=O)C(N)=O)[C@@H](C)O)C(=O)O)C(=O)O)C(=O)O [compound 87] (Ac-LEGREKVRAK(Ac)I[Aib][Aib]EGK([Suc-X1])STFSRRAK(Ac)-NH2)
0.77	86	CCCCCCCCCCCCCCCC(=O)N[C@@H](CCC(=O)N[C@@H](CCC(=O)N[C@@H](CCC(=O)NCCCOCCOCCOCCCNC(=O)CCC(=O)NCCCOCCOCCOCCCNC(=O)CCC(=O)NCCCOCCOCCOCCCNC(=O)CCC(=O)NCCCC[C@H](NC(=O)CNC(=O)[C@H](CCC(=O)O)NC(=O)C(C)(C)NC(=O)C(C)(C)NC(=O)[C@@H](NC(=O)[C@H](CCCCNC(C)=O)NC(=O)[C@H](C)NC(=O)[C@H](CCCNC(=N)N)NC(=O)[C@@H](NC(=O)[C@H](CCCCN)NC(=O)[C@H](CCC(=O)O)NC(=O)[C@H](CCCNC(=N)N)NC(=O)CNC(=O)[C@H](CCC(=O)O)NC(=O)[C@H](CC(C)C)NC(C)=O)C(C)C)[C@@H](C)CC)C(=O)N[C@@H](CO)C(=O)N[C@H](C(=O)N[C@@H](Cc1ccccc1)C(=O)N[C@H](C(=O)N[C@@H](CCCNC(=N)N)C(=O)N[C@@H](CCCNC(=N)N)C(=O)N[C@@H](C)C(=O)N[C@@H](CCCCNC(C)=O)C(N)=O)[C@@H](C)O)[C@@H](C)O)C(=O)O)C(=O)O)C(=O)O [compound 93] (Ac-LEGREKVRAK(Ac)I[Aib][Aib]EGK([Suc-X1])STFTRRAK(Ac)-NH2)
0.15	95	CCCCCCCCCCCCCCCCCC(=O)N[C@@H](CCC(=O)N[C@@H](CCC(=O)N[C@@H](CCC(=O)NCCCOCCOCCOCCCNC(=O)CCC(=O)NCCCOCCOCCOCCCNC(=O)CCC(=O)NCCCC[C@H](NC(=O)CNC(=O)[C@H](CCC(=O)O)NC(=O)C(C)(C)NC(=O)C(C)(C)NC(=O)[C@@H](NC(=O)[C@H](CCCCNC(C)=O)NC(=O)[C@H](C)NC(=O)[C@H](CCCNC(=N)N)NC(=O)[C@@H](NC(=O)[C@H](CCCCN)NC(=O)[C@H](CCC(=O)O)NC(=O)[C@H](CCCNC(=N)N)NC(=O)CNC(=O)[C@H](CCC(=O)O)NC(=O)[C@H](CC(C)C)NC(C)=O)C(C)C)[C@@H](C)CC)C(=O)N[C@@H](CO)C(=O)N[C@H](C(=O)N[C@@H](Cc1ccccc1)C(=O)N[C@@H](CO)C(=O)NC(C)(C)C(=O)N[C@@H](CCCNC(=N)N)C(=O)N[C@@H](CCCCN)C(=O)N[C@@H](CCCCNC(C)=O)C(N)=O)[C@@H](C)O)C(=O)O)C(=O)O)C(=O)O [compound 60] (Ac-LEGREKVRAK(Ac)I[Aib][Aib]EGK([Suc-X4])STFS[Aib]RKK(Ac)-NH2)
0.1	95	CCCCCCCCCCCCCCCC(=O)N[C@@H](CCC(=O)N[C@@H](CCC(=O)N[C@@H](CCC(=O)NCCCOCCOCCOCCCNC(=O)CCC(=O)NCCCOCCOCCOCCCNC(=O)CCC(=O)NCCCOCCOCCOCCCNC(=O)CCC(=O)NCCCC[C@H](NC(=O)CNC(=O)[C@H](CCC(=O)O)NC(=O)[C@@H](NC(=O)C(C)(C)NC(=O)[C@@H](NC(=O)[C@H](CCCCNC(C)=O)NC(=O)[C@H](C)NC(=O)[C@H](CCCNC(=N)N)NC(=O)[C@@H](NC(=O)[C@H](CCCCN)NC(=O)[C@H](CCC(=O)O)NC(=O)[C@H](CCCNC(=N)N)NC(=O)CNC(=O)[C@H](CCC(=O)O)NC(=O)[C@H](CC(C)C)NC(C)=O)C(C)C)[C@@H](C)CC)[C@@H](C)CC)C(=O)N[C@@H](CO)C(=O)N[C@H](C(=O)N[C@@H](Cc1ccccc1)C(=O)N[C@@H](CO)C(=O)N[C@@](C)(CCCCN)C(=O)N[C@@H](CCCNC(=N)N)C(=O)N[C@@H](C)C(=O)N[C@@H](CCCCNC(C)=O)C(N)=O)[C@@H](C)O)C(=O)O)C(=O)O)C(=O)O [compound 84] (Ac-LEGREKVRAK(Ac)I[Aib]IEGK([Suc-X1])STFS[αMeK]RAK(Ac)-NH2)
